The text below walks through data of publication doi:10.1101/2025.09.30.679600, “Expansion of DNA-Encoded Library Hits Using Generative Chemistry and Ultra-Large Compound Catalogs” (bioRxiv, 2025).

T1 sequence (Q12888 1484-1603 limits assumed): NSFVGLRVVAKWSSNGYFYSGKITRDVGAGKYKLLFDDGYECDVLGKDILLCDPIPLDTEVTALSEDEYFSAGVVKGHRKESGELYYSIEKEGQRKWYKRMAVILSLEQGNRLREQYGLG

The assay concerns the target T1, 53BP1 tandem Tudor domain (TTD) (Homo sapiens, UniProt Q12888).
T1 construct: DEL screens targeting the tandem Tudor domain (TTD) of 53BP1; made in house
In words: 53BP1 TR-FRET displacement assay. The settings on record: mean ± SD of at least three replicates. The class given is binding. The text has this:
In this work, we test the hypothesis that initializing a structure-based generative AI workflow with validated DEL screening data can rapidly identify novel, potent, and more drug-like compounds from an ultra-large virtual library, outperforming traditional hit-picking strategies. To do so, we present a DEL-driven, integrated virtual screening workflow that combines the HIDDEN GEM platform with the multi-billion-compound Enamine REAL Space (Figure 1). Using data from our recently published DEL screens targeting the tandem Tudor domain (TTD) of 53BP1,[8],[16],[27] we biased our generative structure-guided ML model to identify novel, commercially available compounds from the Enamine REAL Space. All purchased and off-DNA synthesized compounds were experimentally tested using a developed time-resolved fluorescence resonance energy transfer (TR-FRET) displacement assay. This workflow provides a rapid, cost-effective strategy for academic labs and small biotech companies to accelerate hit discovery using focused DEL libraries and to expand beyond the screened chemical space, which is particularly important for smaller-sized DELs.
Reagents, protein expression/purification, DEL production and screening, and TR-FRET screening protocols were previously reported.[16],[27] […]
[Compound], µM [Compound], µM [Compound], µM
[Compound], µM [Compound], µM
Figure S2. 53BP1 TR-FRET displacement assay dose-response curves for compounds identified from
HIDDEN GEM. Each data point represents the mean of three replicates (n=3), with error bars indicating standard
deviation. Dose-response curves were fitted using a four-parameter Hill equation. […]
In general terms: TR-FRET usually uses a lanthanide donor and a delayed reading to cut background.
For the compound `CCN1CCN(c2ccccc2NC(=O)c2cc(O)c3ccccc3c2)CC1` [UNC10414641A], the IC50 (usually the concentration that gives 50% inhibition) stood at 58 ± 10 µM.
Then `CN1CCC(Nc2ccccc2NC(=O)c2cccc(F)c2)CC1` [UNC10413800A], with 54 ± 8.5 µM.
Then `COc1ccc(C(CNC2=NS(=O)(=O)c3ccccc32)N2CCCC2)cc1` (centres unmarked) [UNC10413807A], with 43 ± 0.44 µM; and `CN1CCN(c2ccccc2NC(=O)c2cc3ccccc3[nH]2)CC1` [UNC10413788A], with 22 ± 3.6 µM; and `Cc1ccc(C(CNC2=NS(=O)(=O)c3ccccc32)N2CCCC2)cc1` (centres unmarked) [UNC10414645A], with 34 ± 3 µM.
